ChEMBL document CHEMBL1201862, “PubChem BioAssay data set” (2004)
Calls of active or inactive are those of the source. Cut-off read from the data, not from the text of the source, for most assays here: actives have a measured EC50 and inactives only a lower limit.

Tests used:
[1] = molecular target: T1, Heat shock factor protein 1 (Mus musculus, UniProt P38532); assay: HSF1 potentiators in luciferase reporter cells, confirmation, cell-based, NIH3T3, luminescence, dose retest (AID 435004); format: functional;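 note: stress induced by proteasome inhibitor MG132 added 30 min after compound; luciferase reporter driven by HSF1 response element in NIH3T3 cells; actives raise luminescence as potentiators of the MG132 stress response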
T1 sequence (P38532 whole entry): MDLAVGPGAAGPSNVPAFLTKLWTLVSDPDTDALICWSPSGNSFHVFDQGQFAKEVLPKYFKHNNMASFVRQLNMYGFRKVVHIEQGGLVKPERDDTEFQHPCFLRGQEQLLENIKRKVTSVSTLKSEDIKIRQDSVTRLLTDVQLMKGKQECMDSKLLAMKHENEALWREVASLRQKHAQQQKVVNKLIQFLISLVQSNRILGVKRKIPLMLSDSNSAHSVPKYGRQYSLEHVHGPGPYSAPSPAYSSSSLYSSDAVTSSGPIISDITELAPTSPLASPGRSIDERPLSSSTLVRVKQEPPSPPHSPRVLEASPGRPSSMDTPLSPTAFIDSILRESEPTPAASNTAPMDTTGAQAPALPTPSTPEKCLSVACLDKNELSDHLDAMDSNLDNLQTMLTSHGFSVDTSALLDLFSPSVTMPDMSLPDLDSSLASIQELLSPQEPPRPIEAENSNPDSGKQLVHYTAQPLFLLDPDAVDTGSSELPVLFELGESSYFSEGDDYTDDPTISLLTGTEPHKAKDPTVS

[2] = inhibitors of firefly luciferase expression or activity, dose response, H4 neuroglioma cells, luminescence (AID 1990); format: functional, cell-based
[3] = Luminescence Cell-Based Dose Response HTS to Identify Inhibitors of 5'UTR Stem-Loop Driven Prion Protein mRNA Translation in H4 Neuroglioblastoma Cells. [Related pubchem assays: 1827 (Project Summary), 1813 (Primary HTS)]; format: functional
[4] = inhibitors of SNCA 5'UTR-driven reporter translation, confirmation, H4 neuroglioma cells, luminescence (AID 1988); format: functional, cell-based
[5] = molecular target: T2, Corticotropin-releasing factor receptor 2/Corticotropin-releasing factor-binding protein (Homo sapiens, UniProt P24387+Q13324); assay: activators of CRF receptor 2 with binding protein – uHTS hits, confirmation (AID 602473); format: functional; settings: read-out: EC50_Mean
T2 sequence (Q13324 whole entry): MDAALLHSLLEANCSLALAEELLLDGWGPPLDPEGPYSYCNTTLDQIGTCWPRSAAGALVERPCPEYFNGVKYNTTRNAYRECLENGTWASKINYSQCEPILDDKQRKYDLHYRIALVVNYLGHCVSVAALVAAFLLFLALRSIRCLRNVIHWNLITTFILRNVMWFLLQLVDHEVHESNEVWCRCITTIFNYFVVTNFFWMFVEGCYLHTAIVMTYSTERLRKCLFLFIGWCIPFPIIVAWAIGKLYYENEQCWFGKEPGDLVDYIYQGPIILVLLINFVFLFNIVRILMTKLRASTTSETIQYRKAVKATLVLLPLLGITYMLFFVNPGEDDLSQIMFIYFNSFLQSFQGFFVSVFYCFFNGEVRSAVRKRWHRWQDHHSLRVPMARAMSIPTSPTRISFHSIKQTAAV
T2 sequence (P24387 whole entry): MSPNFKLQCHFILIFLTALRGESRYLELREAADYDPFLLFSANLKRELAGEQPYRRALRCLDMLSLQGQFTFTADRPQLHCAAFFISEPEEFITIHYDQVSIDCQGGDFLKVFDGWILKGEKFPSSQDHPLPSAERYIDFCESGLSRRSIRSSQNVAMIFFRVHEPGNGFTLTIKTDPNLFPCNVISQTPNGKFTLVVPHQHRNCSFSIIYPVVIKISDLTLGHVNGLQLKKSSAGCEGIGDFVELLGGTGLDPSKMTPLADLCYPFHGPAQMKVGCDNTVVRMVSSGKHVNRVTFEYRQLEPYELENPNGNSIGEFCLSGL

[6] = molecular target: Luciferin 4-monooxygenase (Photinus pyralis, UniProt P08659); assay: firefly luciferase enzyme inhibitors, dose response, biochemical, luminescence (AID 1891)
Sequence of Luciferin 4-monooxygenase (P08659 whole entry): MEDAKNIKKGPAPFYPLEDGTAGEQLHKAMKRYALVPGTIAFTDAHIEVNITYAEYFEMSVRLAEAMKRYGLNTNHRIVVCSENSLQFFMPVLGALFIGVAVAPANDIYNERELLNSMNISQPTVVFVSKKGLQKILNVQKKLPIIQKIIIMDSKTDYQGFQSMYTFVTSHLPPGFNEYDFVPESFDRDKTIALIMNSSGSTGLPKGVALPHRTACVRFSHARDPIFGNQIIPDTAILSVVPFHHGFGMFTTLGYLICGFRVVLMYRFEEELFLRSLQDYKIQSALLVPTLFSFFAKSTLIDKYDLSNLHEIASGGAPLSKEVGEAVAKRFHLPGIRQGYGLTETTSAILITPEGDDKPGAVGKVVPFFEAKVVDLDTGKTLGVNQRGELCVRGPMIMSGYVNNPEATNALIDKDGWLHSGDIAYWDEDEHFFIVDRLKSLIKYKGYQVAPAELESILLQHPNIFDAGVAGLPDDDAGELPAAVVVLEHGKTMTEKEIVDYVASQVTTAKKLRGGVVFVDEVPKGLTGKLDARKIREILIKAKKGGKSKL

[7] = Luminescence Cell-Based Dose Confirmation HTS to Identify Inhibitors of Platelet Dense Granule Release. [Related pubchem assays: 1663 (Primary HTS), 1678 (Summary of Project)]; format: functional
[8] = molecular target: T2, Corticotropin-releasing factor receptor 2/Corticotropin-releasing factor-binding protein; assay: Dose Response confirmation of uHTS hits for small molecule antagonists of the CRF-binding protein and CRF-R2 receptor complex.; format: functional; settings: read-out: IC50_Mean
[9] = Luminescence Cell-Based Dose Retest to Confirm Inhibitors of Cancer Stem Cells. [Related pubchem assays (depositor defined):AID2717, AID2721]; format: functional; settings: Homo sapiens
[10] = off-target signal loss in HeLa-CEM21 co-culture – HeLa F-luc CTL cells, cherry-picked, counter-screen for HIV-1 Env fusion inhibitor project, dose response (AID 652040); format: functional, cell-based;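 note: potency for signal decrease marking cytotoxic or nonspecific inhibition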
[11] = molecular target: T1, Heat shock factor protein 1; assay: inhibition of MG132-induced HSE-luciferase signal, confirmation, cell-based, NIH3T3, luminescence, dose retest (AID 2382); format: functional;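 note: NIH3T3 fibroblasts with HSF1-driven luciferase reporter stressed by proteasome inhibitor MG132; luminescence from HSF1-driven luciferase expression after 8 hours of MG132 stress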
Cytochrome P450 2C9 = Cytochrome P450 2C9 (Homo sapiens, UniProt P11712)
Sequence of Cytochrome P450 2C9 (P11712 whole entry): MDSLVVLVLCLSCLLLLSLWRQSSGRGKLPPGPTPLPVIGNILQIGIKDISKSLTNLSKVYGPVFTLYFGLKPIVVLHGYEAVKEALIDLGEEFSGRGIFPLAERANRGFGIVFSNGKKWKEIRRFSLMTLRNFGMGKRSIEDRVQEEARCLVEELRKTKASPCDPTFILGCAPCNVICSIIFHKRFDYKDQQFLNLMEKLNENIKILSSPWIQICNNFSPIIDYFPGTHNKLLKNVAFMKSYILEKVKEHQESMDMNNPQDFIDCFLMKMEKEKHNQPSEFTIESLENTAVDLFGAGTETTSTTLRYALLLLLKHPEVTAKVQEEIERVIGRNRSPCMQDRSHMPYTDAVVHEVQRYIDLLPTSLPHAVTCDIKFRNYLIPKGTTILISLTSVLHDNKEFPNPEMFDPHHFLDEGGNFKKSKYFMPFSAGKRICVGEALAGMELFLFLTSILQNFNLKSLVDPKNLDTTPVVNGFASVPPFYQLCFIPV

[12] = tested on: Streptococcus sp. 'group A'; assay: growth inhibition of control SK(-) GAS strain, dose response, counter-screen for streptokinase expression inhibitor project, luminescence, kanamycin, BacTiterGlo, confirmation (AID 1900); format: functional, organism-based
Streptococcus = assay: Group A Streptococcus viability loss, dose response, counter-screen for streptokinase expression inhibitor project, luminescence, BacTiterGlo (AID 1915); format: functional, organism-based;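 note: potency for reduction of bacterial viability or growth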
[13] = HEp-2 cell cytotoxicity, dose response, cytotoxicity control for RSV inhibitor project, HTS (AID 2410); format: functional; settings: human respiratory syncytial virus
[14] = inhibitors of clade B AD8 Env fusion, dose response, cell-based, cherry-pick (AID 652062); format: functional;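 note: luciferase signal from cell-cell fusion driven by HIV-1 clade B AD8 Env; potency is for inhibitors of fusion seen as a drop in luminescence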
[15] = molecular target: T3, Rac GTPase-activating protein 1 (Homo sapiens, UniProt Q9H0H5); assay: MgcRacGAP GTPase-activating activity inhibitors, confirmation, biochemical, ADP Hunter fluorescence, primary and confirmatory (AID 624330); format: functional
T3 sequence (Q9H0H5 whole entry): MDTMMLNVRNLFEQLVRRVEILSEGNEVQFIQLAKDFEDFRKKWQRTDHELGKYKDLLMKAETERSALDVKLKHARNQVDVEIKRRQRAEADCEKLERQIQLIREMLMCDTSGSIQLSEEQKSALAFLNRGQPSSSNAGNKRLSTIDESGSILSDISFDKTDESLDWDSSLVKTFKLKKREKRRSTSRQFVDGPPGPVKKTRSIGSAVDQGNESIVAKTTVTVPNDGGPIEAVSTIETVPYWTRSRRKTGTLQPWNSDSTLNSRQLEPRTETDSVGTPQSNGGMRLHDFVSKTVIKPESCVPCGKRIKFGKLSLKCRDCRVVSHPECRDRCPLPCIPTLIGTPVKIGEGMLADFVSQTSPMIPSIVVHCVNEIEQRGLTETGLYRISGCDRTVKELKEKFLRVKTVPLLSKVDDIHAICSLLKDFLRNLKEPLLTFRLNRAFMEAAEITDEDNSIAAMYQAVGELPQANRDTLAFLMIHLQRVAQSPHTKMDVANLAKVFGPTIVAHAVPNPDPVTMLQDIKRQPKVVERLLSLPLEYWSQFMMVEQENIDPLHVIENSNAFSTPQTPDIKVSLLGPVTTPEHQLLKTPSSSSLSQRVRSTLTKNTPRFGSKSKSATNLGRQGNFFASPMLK

Compound: Cc1cccc(-c2cc(C(=O)Nc3ccncc3)c3ccccc3n2)c1
- EC50 [1]: 43.1 µM (active)

Compound: COc1cccc(CNC(=O)c2nnn(CC(=O)Nc3ccc(Br)cc3)c2N)c1
- EC50 [2]: 46.9 µM (active)
- EC50 [3]: 103 µM (active)
- EC50 [4]: 11 µM (active)

Compound: CCOc1ccc(C2C(C#N)=C(N)N3C(=C2C#N)Sc2ccccc23)cc1 (stereo not drawn)
- EC50 [5]: 8.06 µM (active)

Compound: Cn1c(NNC(=O)c2ccccc2F)cc(=O)n(C)c1=O
- EC50 [2]: > 120 µM (not active)
- EC50 [3]: > 120 µM (not active)
- EC50 [4]: > 120 µM (not active)

Compound: COC(=O)c1sccc1NC(=O)Nc1ccc(OC)cc1
- EC50 [6]: 0.358 µM (active)
- EC50 [7]: 1.33 µM (active)

Compound: O=C1CC2CS(=O)(=O)CC2N1c1ccc(Oc2ccccc2)cc1 (stereo not drawn)
- EC50 [5]: > 53 µM (inactive)
- IC50 [8]: > 47.1 µM (inactive)

Compound: Oc1ccc(-c2cnc(-c3ccc(O)cc3)nc2)cc1
- AC50 [9]: 0.342 µM (active)
- EC50 [1]: 4.99 µM (active)

Compound: CCN(CC)S(=O)(=O)c1cccc(NC(=O)COC(=O)CCC(=O)c2ccc(F)cc2)c1
- EC50 [6]: > 112 µM (not active)
- EC50 [7]: > 112 µM (not active)

Compound: Cc1cc(Cl)ccc1OCC(=O)NNC(=O)C1CSC2(C)CCC(=O)N12 (stereo not drawn)
- AC50 [10]: 39.8 µM (active)

Compound: Cc1ccnc(NS(=O)(=O)c2ccc(NC(=O)COc3ccccc3)cc2)n1
- EC50 [2]: > 120 µM (not active)
- EC50 [3]: > 120 µM (not active)
- EC50 [11]: > 195 µM (not active)
- EC50 [4]: > 120 µM (not active)

Compound: COc1ccc(NC(=O)CSc2nnc(Cn3cnc([N+](=O)[O-])n3)n2C)cc1
- EC50 [1]: > 260 µM (inactive)

Compound: CC(C)NC(=O)NC(=O)COc1ccc(Br)cc1Br
- EC50 [1]: > 260 µM (inactive)

Compound: COC(=O)c1ccc(Oc2nc(C)cc(Oc3ccccc3)n2)cc1
- EC50 [6]: > 112 µM (not active)
- EC50 [7]: > 112 µM (not active)

Compound: COc1cc2nc(S)nc(NCc3ccc(Cl)cc3)c2cc1OC
- EC50 [1]: > 260 µM (inactive)

Compound: COc1cc(C2C(C#N)=C(N)N(Nc3ccccc3)C3=C2C(=O)CC(C)(C)C3)ccc1OCc1ccccc1 (stereo not drawn)
- EC50 [2]: 13.4 µM (active)
- EC50 [3]: 18.7 µM (active)
- AC50 (Cytochrome P450 2C9): 0.794 µM (inconclusive)
- EC50 [4]: > 120 µM (not active)

Compound: Cc1onc(C(=O)Nc2ccc3c(c2)OCO3)c1[N+](=O)[O-]
- EC50 [6]: > 112 µM (not active)
- EC50 [7]: > 112 µM (not active)

Compound: O=C(NCc1nnc(SCc2ccccc2)n1-c1ccccc1)C12CC3CC(CC(C3)C1)C2
- EC50 [1]: > 260 µM (inactive)

Compound: COc1cccc(CNc2ccc(Br)cn2)c1O
- EC50 [1]: 34.1 µM (active)

Compound: O=S(=O)(Nc1cccc(-c2ccc3nncn3n2)c1)c1cc(F)ccc1F
- EC50 [6]: > 112 µM (not active)
- EC50 [7]: > 112 µM (not active)

Compound: CC1(c2ccc(OC(F)F)cc2)NC(=O)N(CC(=O)Nc2cccnc2Cl)C1=O (stereo not drawn)
- EC50 [5]: 15 µM (active)

Compound: CC(C)CC(=O)Nc1ccc(C(=O)NNC(=S)NC(=O)C2CCCCC2)cc1
- EC50 [2]: 12.5 µM (active)
- EC50 [3]: 14.8 µM (active)
- EC50 [4]: 12.4 µM (active)
- EC50 [12]: 1.65 µM (active)
- EC50 (Streptococcus): 5.23 µM (active)

Compound: O=C1c2ccccc2C(=O)c2c1cccc2-n1nnc2ccccc21
- EC50 [2]: 16.3 µM (active)
- EC50 [3]: > 120 µM (not active)
- EC50 [4]: > 120 µM (not active)

Compound: Cc1c(C#N)c(N)nc2c3c(sc12)NC(=O)CC3c1ccc(F)cc1 (stereo not drawn)
- EC50 [6]: > 112 µM (not active)
- EC50 [7]: > 112 µM (not active)

Compound: O=C1NC(c2ccccc2)=C(c2nc3ccccc3s2)C(c2ccc(F)cc2)N1 (stereo not drawn)
- EC50 [2]: > 60 µM (not active)
- EC50 [3]: > 120 µM (not active)
- EC50 [4]: 20.8 µM (active)
- CC50 [13]: 10.4 µM (active)

Compound: CC(Nc1ccc([N+](=O)[O-])cc1[N+](=O)[O-])c1ccccc1 (stereo not drawn)
- EC50 [5]: > 53 µM (inactive)
- IC50 [8]: 34.7 µM (active)

Compound: Cc1ccc(CC(=O)NCCCc2ccccc2)cc1
- EC50 [5]: > 53 µM (inactive)
- IC50 [8]: > 47.1 µM (inactive)

Compound: Cc1cc(C(=O)NNC(=O)C(CCC(N)=O)NS(=O)(=O)c2ccc(Cl)cc2)c(C)o1 (stereo not drawn)
- EC50 [5]: > 53 µM (inactive)
- IC50 [8]: > 47.1 µM (inactive)

Compound: Cc1ccc(NC(=O)N2CCCC2C(=O)Nc2c(C)cc(C)cc2C)cc1 (stereo not drawn)
- EC50 [1]: > 260 µM (inactive)

Compound: CC1=C(C(=O)N(C(C)C)C(C)C)CC(CC(=O)NC2CCCCC2)C(=O)N1Cc1ccccc1 (stereo not drawn)
- EC50 [5]: > 53 µM (inactive)
- IC50 [8]: > 47.1 µM (inactive)

Compound: O=C(NCc1ccccc1)c1ccc(Cl)cc1
- EC50 [5]: > 53 µM (inactive)
- IC50 [8]: > 47.1 µM (inactive)

Compound: Nn1cnnc1N/N=C/c1cc([N+](=O)[O-])c(Cl)cc1Cl
- EC50 [1]: > 260 µM (inactive)

Compound: CCc1ccccc1/N=C/c1c(C)c(C#N)c2nc3ccccc3n2c1O
- EC50 [5]: 4.75 µM (active)

Compound: COc1cccc(S(=O)(=O)N2CC3(CN(C(=O)Nc4cccc(F)c4)[C@H](CO)c4[nH]c5cc(OC)ccc5c43)C2)c1
- AC50 [14]: 22 µM (active)

Compound: O=Nc1c(-c2ccccc2)[nH]n(-c2ccccc2)c1=O
- EC50 [1]: 3.87 µM (active)

Compound: CCCCOC(=O)N/N=C/C=C/c1ccccc1
- EC50 [6]: > 112 µM (not active)
- EC50 [7]: > 112 µM (not active)

Compound: Cc1ccsc1/C=N/N1CCN(C2c3ccccc3-c3ccccc32)CC1
- EC50 [6]: > 112 µM (not active)
- EC50 [7]: > 112 µM (not active)

Compound: Oc1c(Br)cc(-c2ccccc2)cc1Br
- EC50 [5]: > 53 µM (inactive)
- IC50 [8]: 10.1 µM (active)
- IC50 [15]: 85 µM (active)
